# Laboratory results taken from patent US20230098403A1, “MAGNETIC RESONANCE IMAGING CONTRAST AGENT, PREPARATION METHOD AND USE THEREOF” (GUANGZHOU PINGLAN MEDICAL TECHNOLOGY CO., LTD., priority 2020, published 2023).
# Columns and labels:
# [1] = Relaxivity measurement (T1 and T2 relaxation, MRI Contrast Agent Analyzer); format: physicochemical; details: 0.5 T, 32° C., pH=7.4
# Protocol: The method for measuring the relaxivity comprises the following steps: preparing contrast agent solutions in a gradient concentration (0.054, 0.109, 0.224, 0.451, 0.906 mM, in Hepes buffer, pH=7.4), and measuring the contrast agent samples at different concentrations by Niumag PQ001 MRI Contrast Agent Analyzer (0.5±0.08T, main frequency of instrument: 21.3 MHz; at 32° C.) to respectively obtain their T1 and T2 relaxation time, and then performing a linear fitting between the relaxation rate, Ri (Ri=1/Ti, i=1, 2) and the contrast agent concentrations to obtain a slope, i.e., relaxivity (ri, i=1, 2). Relaxivity reflects the ability of magnetic resonance imaging contrast agent to alter the relaxation time of water proton and is an important parameter to evaluate the quality of contrast agent. Relaxivity (ri, i=1, 2) is defined as the alteration in the relaxation rate of water proton (1/Ti, i=1, 2) by unit concentration of MRI Contrast agent (mmol/L).
# [2] = In vivo imaging in rats (3.0 T MRI); details: SD rats, 0.2 mmol/kg tail vein
# Protocol: 1. Sixteen SD rats were divided into a KBR0826 contrast agent group (experimental group) and a gadoteric acid meglumine (Gd-DOTA) contrast agent group (control group), with 8 rats in each group, fasted for 12 hours (drank water freely).
# 2. 3% sodium pentobarbital (60 to 70 mg/kg) was weighed for intraperitoneal anesthesia.
# 3. The dosage of KBR0826 was 0.2 mmol/kg. SD rats were imaged in vivo with a 3.0 T MRI imager. Contrast agents were injected into the tail vein. The signal intensities (SI) of the heart, liver, brain parenchyma, muscle, and abdominal aorta in rats were measured before and after injection, and signal to noise ratio (SNR) was calculated and time-signal intensity curve was drawn to evaluate the imaging effect of the contrast agents.
# [3] = Excretion kinetics test, Mn^2+ in urine and bile by ICP-MS; format: in vivo, SD rats; details: tail vein 0.1 mmol/kg; for Bile: Mn^2+ excretion amount / Bile: cumulative Mn^2+ excretion amount / Bile: cumulative Mn^2+ excretion rate / Urine: Mn^2+ excretion amount / Urine: cumulative Mn^2+ excretion amount / Urine: cumulative Mn^2+ excretion rate: SD rats, n = 7
# Protocol: Clean grade Sprague Dawley (SD) rats, 5 males and 3 females, weighing 250±50 g, were purchased from the Animal Experimental Center of North Sichuan Medical College, fasted for 12-16 h before the experiment and anesthetized by intraperitoneal injection of 3% sodium pentobarbital (40 mg/kg).
# The rat tail was soaked in hot water at about 40° C. for about 1 minute, and it was wiped and sterilized by a cotton ball dipped in alcohol followed by fixing and stretching the tip of the tail with left thumb and middle finger, and flatting with the index finger. The tail vein was located at both sides of the tail and was light cyan in color. Air in an indwelling needle was removed with normal saline, and the indwelling needle was inserted into the vein at an angle of 15° to the vein. When blood was returned, the indwelling needle was pushed forward after insertion. Then the indwelling needle was fixed on the tail of the rat, and normal saline was injected at a rate of about 2 mL/h.
# After sterilization, a longitudinal incision was made in the middle of the abdomen of rats below the xiphoid, by incising the skin, subcutaneous tissue, linea alba, and peritoneum layer by layer into the abdomen. A forcep was used for opening the left and right lobes of the liver, below which the duodenum and omentum were exposed. The transverse part of the duodenum was stretched with the forcep in the middle, and the pale yellow biliary tract was covered by the omentum and extended from the subhepatic portion to the duodenum. The biliary tract was bluntly dissected out, picked out with a glass pick, and a venous indwelling needle was inserted near the duodenum, fixed with a hemostatic clip, and bile was collected as a pre-dose sample.
# A longitudinal incision was made at 0.5 cm above the urethral orifice of rats, and the skin was incised and the muscles were bluntly separated. After the bladder was filled to a certain extent, the bladder was lifted by the left hand with a tweezer, and the venous indwelling needle was held by the right hand and was obliquely inserted into the bladder toward the top, along the opening of ureter on the dorsal lateral side of the bladder, and the needle was removed to collect urine as a pre-dose sample.
# After collecting pre-dose bile and urine samples, the drug was rapidly administered in the tail vein at a dose of 0.1 mmol/kg.
# The hourly biliary excretion amount and hourly urinary excretion amount were collected after drug administration; the samples were weighed and frozen at −20° C.
# […] of the sample (bile and urine) was diluted to 6 to 10 ml with 1% HNO3 to make the concentrations of Mn^2+ in the range of 1 to 1000 ppb. The concentrations of Mn^2+ in the samples solution were numbered and detected. The Mn^2+ concentrations in the sample solutions were calculated according to the response intensity and standard curve.
# Origin 9.0 was used for calculating data and drawing. The excretion amount during the period was obtained by multiplying the dilution ratio, measurement concentration and urine (bile) volume. The excretion amount during each period was compared with the dosage of administration to obtain the percentage of cumulative drug excretion amount during the corresponding time period.
compound,measurement,setting,value
O=C([O-])CN(CP(=O)([O-])O)C1CCCCC1N(CC(=O)[O-])CP(=O)([O-])O.[Mn+2].[Na+].[Na+] (centres unmarked) [KBR0826],relaxivity r1,[1],3.12 mmol⁻¹ s⁻¹
same,excretion seen by imaging,[2],could be excreted through the kidneys and intestines
same,liver enhancement,[2],obvious and continuous
same,passage through the blood-brain barrier,[2],could not pass through the normal blood-brain barrier
same,Bile: Mn^2+ excretion amount,[3]; sampling period 0-1 h,0.0386 mg
same,Bile: cumulative Mn^2+ excretion amount,[3]; sampling period 0-1 h,0.0385 mg
same,Bile: cumulative Mn^2+ excretion rate,[3]; sampling period 0-1 h,2.81%
same,Urine: Mn^2+ excretion amount,[3]; sampling period 0-1 h,0.06995 mg
same,Urine: cumulative Mn^2+ excretion amount,[3]; sampling period 0-1 h,0.06995 mg
same,Urine: cumulative Mn^2+ excretion rate,[3]; sampling period 0-1 h,5.28%
same,Bile: Mn^2+ excretion amount,[3]; sampling period 1-2 h,0.0865 mg
same,Bile: cumulative Mn^2+ excretion amount,[3]; sampling period 1-2 h,0.1251 mg
same,Bile: cumulative Mn^2+ excretion rate,[3]; sampling period 1-2 h,9.31%
same,Urine: Mn^2+ excretion amount,[3]; sampling period 1-2 h,0.1582 mg
same,Urine: cumulative Mn^2+ excretion amount,[3]; sampling period 1-2 h,0.2281 mg
same,Urine: cumulative Mn^2+ excretion rate,[3]; sampling period 1-2 h,18.27%
same,Bile: Mn^2+ excretion amount,[3]; sampling period 2-3 h,0.0518 mg
same,Bile: cumulative Mn^2+ excretion amount,[3]; sampling period 2-3 h,0.1768 mg
same,Bile: cumulative Mn^2+ excretion rate,[3]; sampling period 2-3 h,13.17%
same,Urine: Mn^2+ excretion amount,[3]; sampling period 2-3 h,0.1094 mg
same,Urine: cumulative Mn^2+ excretion amount,[3]; sampling period 2-3 h,0.3375 mg
same,Urine: cumulative Mn^2+ excretion rate,[3]; sampling period 2-3 h,26.67%
same,Bile: Mn^2+ excretion amount,[3]; sampling period 3-4 h,0.0333 mg
same,Bile: cumulative Mn^2+ excretion amount,[3]; sampling period 3-4 h,0.2101 mg
same,Bile: cumulative Mn^2+ excretion rate,[3]; sampling period 3-4 h,15.69%
same,Urine: Mn^2+ excretion amount,[3]; sampling period 3-4 h,0.02084 mg
same,Urine: cumulative Mn^2+ excretion amount,[3]; sampling period 3-4 h,0.3399 mg
same,Urine: cumulative Mn^2+ excretion rate,[3]; sampling period 3-4 h,26.71%
same,Bile: Mn^2+ excretion amount,[3]; sampling period 4-5 h,0.043 mg
same,Bile: cumulative Mn^2+ excretion amount,[3]; sampling period 4-5 h,0.2627 mg
same,Bile: cumulative Mn^2+ excretion rate,[3]; sampling period 4-5 h,19.66%
same,Urine: Mn^2+ excretion amount,[3]; sampling period 4-5 h,0.01213 mg
same,Urine: cumulative Mn^2+ excretion amount,[3]; sampling period 4-5 h,0.3521 mg
same,Urine: cumulative Mn^2+ excretion rate,[3]; sampling period 4-5 h,27.59%
same,Bile: Mn^2+ excretion amount,[3]; sampling period 5-6 h,0.0318 mg
same,Bile: cumulative Mn^2+ excretion amount,[3]; sampling period 5-6 h,0.2945 mg
same,Bile: cumulative Mn^2+ excretion rate,[3]; sampling period 5-6 h,22.07%
same,Urine: Mn^2+ excretion amount,[3]; sampling period 5-6 h,0.00387 mg
same,Urine: cumulative Mn^2+ excretion amount,[3]; sampling period 5-6 h,0.3559 mg
same,Urine: cumulative Mn^2+ excretion rate,[3]; sampling period 5-6 h,27.88%
same,Bile: Mn^2+ excretion amount,[3]; sampling period 6-7 h,0.0265 mg
same,Bile: cumulative Mn^2+ excretion amount,[3]; sampling period 6-7 h,0.3209 mg
same,Bile: cumulative Mn^2+ excretion rate,[3]; sampling period 6-7 h,24.05%
same,Urine: Mn^2+ excretion amount,[3]; sampling period 6-7 h,0.00284 mg
same,Urine: cumulative Mn^2+ excretion amount,[3]; sampling period 6-7 h,0.3588 mg
same,Urine: cumulative Mn^2+ excretion rate,[3]; sampling period 6-7 h,28.09%
same,Bile: Mn^2+ excretion amount,[3]; sampling period 7-8 h,0.0219 mg
same,Bile: cumulative Mn^2+ excretion amount,[3]; sampling period 7-8 h,0.3429 mg
same,Bile: cumulative Mn^2+ excretion rate,[3]; sampling period 7-8 h,25.67%
same,Urine: Mn^2+ excretion amount,[3]; sampling period 7-8 h,0.0018 mg
same,Urine: cumulative Mn^2+ excretion amount,[3]; sampling period 7-8 h,0.3606 mg
same,Urine: cumulative Mn^2+ excretion rate,[3]; sampling period 7-8 h,28.22%
same,Bile: Mn^2+ excretion amount,[3]; sampling period 8-9 h,0.02 mg
same,Bile: cumulative Mn^2+ excretion amount,[3]; sampling period 8-9 h,0.3684 mg
same,Bile: cumulative Mn^2+ excretion rate,[3]; sampling period 8-9 h,27.03%
same,Urine: Mn^2+ excretion amount,[3]; sampling period 8-9 h,0.00083 mg
same,Urine: cumulative Mn^2+ excretion amount,[3]; sampling period 8-9 h,0.3614 mg
same,Urine: cumulative Mn^2+ excretion rate,[3]; sampling period 8-9 h,28.28%
same,Bile: Mn^2+ excretion amount,[3]; sampling period 9-10 h,0.0179 mg
same,Bile: cumulative Mn^2+ excretion amount,[3]; sampling period 9-10 h,0.3859 mg
same,Bile: cumulative Mn^2+ excretion rate,[3]; sampling period 9-10 h,29.97%
same,Urine: Mn^2+ excretion amount,[3]; sampling period 9-10 h,0.00061 mg
same,Urine: cumulative Mn^2+ excretion amount,[3]; sampling period 9-10 h,0.362 mg
same,Urine: cumulative Mn^2+ excretion rate,[3]; sampling period 9-10 h,28.33%
same,excretion route,[3]; rats,mainly excreted through liver and kidney
same,time course of excretion in urine and bile,[3]; rats,mainly in urine at the early stage and then in bile
same,excreted in liver and kidney,"[3]; rats, within 600 min",about 60%
same,share of liver and kidney in excretion,"[3]; rats, within 600 min",half and half
